Among the data in patent US12679843B2, “Pyrrolopyrimidine amines as complement inhibitors” (BioCryst Pharmaceuticals, Inc., priority 2020, dated 2026) are IC50 values, retold here.

The assay deals with Factor D (Homo sapiens, UniProt P00746). In words: Factor D esterolytic assay (Z-Lys-SBzl thioester substrate, DTNB, 405 nm). The note with it: substrate Z-Lys-SBzl 1.29 mM, 100 mM HEPES, 500 mM NaCl, pH 7.5, 10% DMSO, tested a minimum of three times. Type of assay: biochemical. A digest of the protocol:
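Human Factor D hydrolysis of Z-Lys-SBzl (1.29 mM) monitored at 405 nm via DTNB thiol detection for 600 s, 690 nm background subtracted. Buffer 100 mM HEPES, 500 mM NaCl, pH 7.5, 10% DMSO; substrate added immediately or after room-temperature preincubation. IC50 from percent inhibition of rate, at least three tests.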

Sequence of Factor D (P00746 26-253): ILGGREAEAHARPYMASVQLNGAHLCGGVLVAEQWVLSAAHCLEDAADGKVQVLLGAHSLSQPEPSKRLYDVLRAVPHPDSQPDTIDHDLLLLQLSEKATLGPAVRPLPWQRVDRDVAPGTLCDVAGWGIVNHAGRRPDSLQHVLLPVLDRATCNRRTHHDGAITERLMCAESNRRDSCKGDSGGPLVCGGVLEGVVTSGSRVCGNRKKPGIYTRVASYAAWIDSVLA

By IC50 is commonly meant the concentration that gives 50% inhibition. As to `C[C@@]12C[C@@H](C(=O)Nc3cccc(Br)n3)N(C(=O)Cn3c4ccc(-c5ccco5)cc4c4c(N)ncnc43)[C@@H]1C2` [Compound 336c, (1R,3S,5R)-2-(2-(4-amino-6-(furan-2-yl)-9H-pyrimido[4,5-b]indol-9-yl)acetyl)-N-(6-bromopyridin-2-yl)-5-methyl-2-azabicyclo[3.1.0]hexane-3-carboxamide], the half-maximal inhibitory concentration (IC50) was below 100 nM. With `C[C@@]12C[C@@H](C(=O)Nc3cccc(Br)n3)N(C(=O)Cn3c4ccc(-c5ccc(F)cc5)cc4c4c(N)ncnc43)[C@@H]1C2` [Compound 337a, (1R,3S,5R)-2-(2-(4-amino-6-(4-fluorophenyl)-9H-pyrimido[4,5-b]indol-9-yl)acetyl)-N-(6-bromopyridin-2-yl)-5-methyl-2-azabicyclo[3.1.0]hexane-3-carboxamide] the figure was below 100 nM.

In the case of `C[C@@]12C[C@@H](C(=O)Nc3cccc(Br)n3)N(C(=O)Cn3c4ccc(C5CCCC5)cc4c4c(N)ncnc43)[C@@H]1C2` [Compound 338e, (1R,3S,5R)-2-(2-(4-amino-6-cyclopentyl-9H-pyrimido[4,5-b]indol-9-yl)acetyl)-N-(6-bromopyridin-2-yl)-5-methyl-2-azabicyclo[3.1.0]hexane-3-carboxamide], the IC50 was below 100 nM. With `COCc1ccc2c(c1)c1c(N)ncnc1n2CC(=O)N1[C@@H]2C[C@@H]2C[C@H]1C(=O)Nc1cccc(Br)n1` [Compound 339g, (1R,3S,5R)-2-(2-(4-amino-6-(methoxymethyl)-9H-pyrimido[4,5-b]indol-9-yl)acetyl)-N-(6-bromopyridin-2-yl)-2-azabicyclo[3.1.0]hexane-3-carboxamide] the figure was below 100 nM; with `COCc1ccc2c(c1)c1c(N)ncnc1n2CC(=O)N1[C@H](C(=O)Nc2cccc(Br)n2)C[C@@]2(C)C[C@@H]12` [Compound 340a, (1R,3S,5R)-2-(2-(4-amino-6-(methoxymethyl)-9H-pyrimido[4,5-b]indol-9-yl)acetyl)-N-(6-bromopyridin-2-yl)-5-methyl-2-azabicyclo[3.1.0]hexane-3-carboxamide], below 100 nM. Turning to `COc1cccc(-c2cc(C)c3c(c2)c2c(N)ncnc2n3CC(=O)N2[C@@H]3C[C@@H]3C[C@H]2C(=O)Nc2cccc(Br)n2)c1` [Compound 341c, (1R,3S,5R)-2-(2-(4-amino-6-(3-methoxyphenyl)-8-methyl-9H-pyrimido[4,5-b]indol-9-yl)acetyl)-N-(6-bromopyridin-2-yl)-2-azabicyclo[3.1.0]hexane-3-carboxamide], the 50% inhibitory concentration (IC50) is below 100 nM. Next, `COc1cccc(-c2cc(C)c3c(c2)c2c(N)ncnc2n3CC(=O)N2[C@H](C(=O)Nc3cccc(Br)n3)C[C@@]3(C)C[C@@H]23)c1` [Compound 342a, (1R,3S,5R)-2-(2-(4-amino-6-(3-methoxyphenyl)-8-methyl-9H-pyrimido[4,5-b]indol-9-yl)acetyl)-N-(6-bromopyridin-2-yl)-5-methyl-2-azabicyclo[3.1.0]hexane-3-carboxamide]: below 100 nM; `Cc1ncc(-c2cc(C)c3c(c2)c2c(N)ncnc2n3CC(=O)N2C[C@](C)(F)C[C@H]2C(=O)Nc2cccc(Cl)n2)cn1` [Compound 343a, (2S,4R)-1-(2-(4-amino-8-methyl-6-(2-methylpyrimidin-5-yl)-9H-pyrimido[4,5-b]indol-9-yl)acetyl)-N-(6-chloropyridin-2-yl)-4-fluoro-4-methylpyrrolidine-2-carboxamide]: below 100 nM. Next, `COc1cc(Br)nc(NC(=O)[C@@H]2C[C@H]3C[C@H]3N2C(=O)Cn2c3ncnc(N)c3c3cc(C(F)(F)F)cc(C)c32)c1` [Compound 344c, (1R,3S,5R)-2-(2-(4-amino-8-methyl-6-(trifluoromethyl)-9H-pyrimido[4,5-b]indol-9-yl)acetyl)-N-(6-bromo-4-methoxypyridin-2-yl)-2-azabicyclo[3.1.0]hexane-3-carboxamide]: below 100 nM; `Cc1cc(C(F)(F)F)cc2c3c(N)ncnc3n(CC(=O)N3[C@@H]4C[C@@H]4C[C@H]3C(=O)Nc3cccc(OC(F)F)n3)c12` [Compound 345c, (1R,3S,5R)-2-(2-(4-amino-8-methyl-6-(trifluoromethyl)-9H-pyrimido[4,5-b]indol-9-yl)acetyl)-N-(6-(difluoromethoxy)pyridin-2-yl)-2-azabicyclo[3.1.0]hexane-3-carboxamide]: below 100 nM; `Cc1nc(C(F)(F)F)cc2c3c(N)ncnc3n(CC(=O)N3[C@@H]4C[C@@H]4C[C@H]3C(=O)Nc3cccc(Br)n3)c12` [Compound 346g, (1R,3S,5R)-2-(2-(4-amino-8-methyl-6-(trifluoromethyl)-9H-pyrido[4′,3′:4,5]pyrrolo[2,3-d]pyrimidin-9-yl)acetyl)-N-(6-bromopyridin-2-yl)-2-azabicyclo[3.1.0]hexane-3-carboxamide]: below 100 nM. With `Cc1nc(C(F)(F)F)cc2c3c(N)ncnc3n(CC(=O)N3[C@H](C(=O)Nc4cccc(Br)n4)C[C@@]4(C)C[C@@H]34)c12` [Compound 347a, (1R,3S,5R)-2-(2-(4-amino-8-methyl-6-(trifluoromethyl)-9H-pyrido[4′,3′:4,5]pyrrolo[2,3-d]pyrimidin-9-yl)acetyl)-N-(6-bromopyridin-2-yl)-5-methyl-2-azabicyclo[3.1.0]hexane-3-carboxamide] the figure was below 100 nM; with `Cc1cc(C(F)(F)F)cc2c3c(N)ncnc3n(CC(=O)N3[C@@H]4C[C@@H]4C[C@H]3C(=O)Nc3cncc(C(F)(F)F)n3)c12` [Compound 348c, (1R,3S,5R)-2-(2-(4-amino-8-methyl-6-(trifluoromethyl)-9H-pyrimido[4,5-b]indol-9-yl)acetyl)-N-(6-(trifluoromethyl)pyrazin-2-yl)-2-azabicyclo[3.1.0]hexane-3-carboxamide], below 100 nM. Consider `Cc1cc(C(F)(F)F)cc2c3c(N)ncnc3n(CC(=O)N3[C@@H]4C[C@@H]4C[C@H]3C(=O)Nc3cccc(C(F)(F)F)n3)c12` [Compound 349c, (1R,3S,5R)-2-(2-(4-amino-8-methyl-6-(trifluoromethyl)-9H-pyrimido[4,5-b]indol-9-yl)acetyl)-N-(6-(trifluoromethyl)pyridin-2-yl)-2-azabicyclo[3.1.0]hexane-3-carboxamide], for which the 50% inhibitory concentration (IC50) was below 100 nM. In the case of `Cc1nc(C(F)(F)F)cc2c3c(N)ncnc3n(CC(=O)N3[C@H](C(=O)Nc4cncc(Br)n4)C[C@@]4(C)C[C@@H]34)c12` [Compound 350a, (1R,3S,5R)-2-(2-(4-amino-8-methyl-6-(trifluoromethyl)-9H-pyrido[4′,3′:4,5]pyrrolo[2,3-d]pyrimidin-9-yl)acetyl)-N-(6-bromopyrazin-2-yl)-5-methyl-2-azabicyclo[3.1.0]hexane-3-carboxamide], the 50% inhibitory concentration (IC50) was below 100 nM. With `Cc1nc(C(F)(F)F)cc2c3c(N)ncnc3n(CC(=O)N3[C@H](C(=O)Nc4cccc(Cl)n4)C[C@@]4(C)C[C@@H]34)c12` [Compound 351a, (1R,3S,5R)-2-(2-(4-amino-8-methyl-6-(trifluoromethyl)-9H-pyrido[4′,3′:4,5]pyrrolo[2,3-d]pyrimidin-9-yl)acetyl)-N-(6-chloropyridin-2-yl)-5-methyl-2-azabicyclo[3.1.0]hexane-3-carboxamide] the figure was below 100 nM; with `Cc1cc(-c2ccoc2)cc2c3c(N)ncnc3n(CC(=O)N3[C@@H]4C[C@@H]4C[C@H]3C(=O)Nc3cccc(Br)n3)c12` [Compound 352c, (1R,3S,5R)-2-(2-(4-amino-6-(furan-3-yl)-8-methyl-9H-pyrimido[4,5-b]indol-9-yl)acetyl)-N-(6-bromopyridin-2-yl)-2-azabicyclo[3.1.0]hexane-3-carboxamide], below 100 nM; with `Cc1cc(-c2ccoc2)cc2c3c(N)ncnc3n(CC(=O)N3[C@H](C(=O)Nc4cccc(Br)n4)C[C@@]4(C)C[C@@H]34)c12` [Compound 353a, (1R,3S,5R)-2-(2-(4-amino-6-(furan-3-yl)-8-methyl-9H-pyrimido[4,5-b]indol-9-yl)acetyl)-N-(6-bromopyridin-2-yl)-5-methyl-2-azabicyclo[3.1.0]hexane-3-carboxamide], below 100 nM. With `Cc1cc(-c2ccnc(C(F)(F)F)c2)cc2c3c(N)ncnc3n(CC(=O)N3[C@@H]4C[C@@H]4C[C@H]3C(=O)Nc3cccc(Br)n3)c12` [Compound 354c, (1R,3S,5R)-2-(2-(4-amino-8-methyl-6-(2-(trifluoromethyl)pyridin-4-yl)-9H-pyrimido[4,5-b]indol-9-yl)acetyl)-N-(6-bromopyridin-2-yl)-2-azabicyclo[3.1.0]hexane-3-carboxamide] the figure was below 100 nM. With `Cc1cc(-c2ccnc(C(F)(F)F)c2)cc2c3c(N)ncnc3n(CC(=O)N3[C@H](C(=O)Nc4cccc(Br)n4)C[C@@]4(C)C[C@@H]34)c12` [Compound 355a, (1R,3S,5R)-2-(2-(4-amino-8-methyl-6-(2-(trifluoromethyl)pyridin-4-yl)-9H-pyrimido[4,5-b]indol-9-yl)acetyl)-N-(6-bromopyridin-2-yl)-5-methyl-2-azabicyclo[3.1.0]hexane-3-carboxamide], the IC50 is below 100 nM. As to `Cc1cc(-c2ccc(C(F)(F)F)nc2)cc2c3c(N)ncnc3n(CC(=O)N3[C@@H]4C[C@@H]4C[C@H]3C(=O)Nc3cccc(Br)n3)c12` [Compound 356c, (1R,3S,5R)-2-(2-(4-amino-8-methyl-6-(6-(trifluoromethyl)pyridin-3-yl)-9H-pyrimido[4,5-b]indol-9-yl)acetyl)-N-(6-bromopyridin-2-yl)-2-azabicyclo[3.1.0]hexane-3-carboxamide], the IC50 was below 100 nM. With `Cc1cc(-c2ccc(C(F)(F)F)nc2)cc2c3c(N)ncnc3n(CC(=O)N3[C@H](C(=O)Nc4cccc(Br)n4)C[C@@]4(C)C[C@@H]34)c12` [Compound 357a, (1R,3S,5R)-2-(2-(4-amino-8-methyl-6-(6-(trifluoromethyl)pyridin-3-yl)-9H-pyrimido[4,5-b]indol-9-yl)acetyl)-N-(6-bromopyridin-2-yl)-5-methyl-2-azabicyclo[3.1.0]hexane-3-carboxamide] the figure was below 100 nM.
